This experiment concerns the target Bek (Homo sapiens, UniProt P21802). In words: Inhibitory activity against Bek-autophosphorylation using ELISA method in OCUM-2MD3 cells. It is filed as cell-based. Conditions: 1 hr with compound, read-out: IC50 (concentration necessary for inhibiting 50% of Bek-phosphorylation). Here is the method:
Human scirrhus stomach cancer cells OCUM-2MD3 (kindly provided by Dr. Kosei Hirakawa, Osaka City University) were cultured in an RPMI medium containing 10% fetal calf serum (purchased from ICN) within a 5% carbon dioxide incubator until 50 to 90% confluent. The harvested cells were seeded onto 96-well flat-bottom plate in RPMI containing 0.1% fetal calf serum at 3.5×10^4 cells per well, followed by cultivation at 37° C. overnight. A solution of the test compound in dimethyl sulfoxide was added to each well, and the cultivation was continued at 37° C. for additional one hr. The medium was removed, and 50 μl of lysis buffer (20 mM HEPES (pH 7.4), 150 mM NaCl, 0.2% Triton X-100, 10% glycerol, 5 mM sodium orthovanadylate, 5 mM disodium ethylenediaminetetraacetate, and 2 mM Na4P2O7) was then added thereto. The mixture was shaken at 4° C. for 2 hr to prepare cell extracts.
Separately, phosphate buffered saline (50 μl, pH 7.4) containing 5 μg/ml of anti-phospho-tyrosine antibody (PY20; purchased from Transduction Laboratories) was added to a microplate for ELISA (Maxisorp; purchased from NUNC), followed by standing at 4° C. overnight to form a solid phase on the wells. After washing of the plate, 300 μl of a blocking solution was added, followed by standing at room temperature for 2 hr to perform blocking. After washing, the whole quantity of the cell extracts was transferred to the wells, and the plate was then allowed to stand at 4° C. overnight. After washing, an anti-Bek antibody (Bek (C-17), purchased from Santa Cruz Biotechnology) or Anti-Human K-sam Rabbit IgG Affinity Purity (purchased from IBL Co., Ltd.) was allowed to react at room temperature for one hr, and, after washing, a peroxidase-labeled anti-rabbit Ig antibody (purchased from Amersham) was allowed to react at room temperature for one hr. After washing, a chromophoric substrate for peroxidase (purchased from Sumitomo Bakelite Co., Ltd.) was added thereto to initiate a reaction. After a suitable level of color development, a reaction termination solution was added to stop the reaction, and the absorbance at 450 nm was measured with a microplate reader. The Bek-phosphorylation activity for each well was determined by presuming the absorbance without the addition of the medicament to be 100% Bek-phosphorylation activity and the absorbance with the addition of a large excess of a positive control (N-{4-[(6,7-dimethoxy-4-quinolyl)oxy]phenyl}-N′-(3,3-dimethylbutyl)urea, 1000 nM) to be 0% Bek-phosphorylation activity. The concentration of the test compound was varied on several levels, the Bek-phosphorylation inhibitory activity was determined for each case, and the concentration of the test compound necessary for inhibiting 50% of Bek-phosphorylation (IC50) was calculated.
On the technique in general: An ELISA detects its analyte on a solid surface through an enzyme-linked reagent.
Chain of Bek (P21802 431-767 limits assumed): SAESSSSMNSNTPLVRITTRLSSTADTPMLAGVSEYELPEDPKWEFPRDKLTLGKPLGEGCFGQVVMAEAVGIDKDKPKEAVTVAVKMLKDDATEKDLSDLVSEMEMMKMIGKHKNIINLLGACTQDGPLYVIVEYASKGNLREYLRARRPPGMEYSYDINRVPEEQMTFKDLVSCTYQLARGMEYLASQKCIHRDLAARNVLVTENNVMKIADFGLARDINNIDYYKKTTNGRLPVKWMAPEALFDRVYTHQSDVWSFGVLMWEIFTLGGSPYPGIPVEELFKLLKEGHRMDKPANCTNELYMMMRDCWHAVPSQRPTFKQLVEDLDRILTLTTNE
Turning to `COc1cc2c(Oc3ccc(Nc4ccc(C(C)(C)C)cc4)cc3)ccnc2cc1OCCCN1C[C@@H](C)O[C@@H](C)C1` [Compound 69, (4-Tert-butylphenyl)-(4-{7-[3-(2,6-dimethylmorpholin-4-yl)propoxy]-6-methoxyquinolin-4-yloxy}phenyl)amine], the IC50 came out at 248 nM. For `COc1cc2c(Oc3ccc(NC(=O)NCCC(C)(C)C)c(Cl)c3)ccnc2cc1OCCN(C)C` [Compound 166, 1-{2-Chloro-4-[7-(2-dimethylamino-ethoxy)-6-methoxy-quinolin-4-yloxy]-phenyl}-3-(3,3-dimethyl-butyl)-urea], the IC50 came to 39 nM. To `COc1cc2c(Oc3ccc(NC(=O)NCCC(C)(C)C)cc3)ccnc2cc1OCCN(CCO)Cc1ccccc1` [Compound 368, 1-[4-(7-{2-[Benzyl-(2-hydroxy-ethyl)-amino]-ethoxy}-6-methoxy-quinolin-4-yloxy)-phenyl]-3-(3,3-dimethyl-butyl)-urea] belongs 157 nM; to `COC(=O)COc1cc2nccc(Oc3ccc(NC(=O)NCCC(C)(C)C)cc3)c2cc1OC` [Compound 215, Methyl (4-{4-[3-(3,3-dimethyl-butyl)-ureido]-phenoxy}-6-methoxy-quinolin-7-yloxy)-acetate], 341 nM; to `COc1cc2nccc(Oc3ccc(NC(=O)NCCC(C)(C)C)cc3)c2cc1OC` [Compound 101, 1-[4-(6,7-Dimethoxy-quinolin-4-yloxy)-phenyl]-3-(3,3-dimethyl-butyl)-urea], < 10 nM. For `COc1cc2c(Oc3ccc(NC(=O)NCCC(C)(C)C)c(Cl)c3)ccnc2cc1OCCCN(CCO)CCO` [Compound 184, 1-[4-(7-{3-[Bis-(2-hydroxy-ethyl)-amino]-propoxy}-6-methoxy-quinolin-4-yloxy)-2-chloro-phenyl]-3-(3,3-dimethyl-butyl)-urea], the IC50 came to 9.2 nM. For `COc1cc2c(Oc3ccc(NC(=O)NCCC(C)(C)C)cc3)ccnc2cc1OCCCN1CCC(CCO)CC1` [Compound 220, 1-(3,3-Dimethyl-butyl)-3-[4-(7-{3-[4-(2-hydroxy-ethyl)-piperidin-1-yl]-propoxy}-6-methoxy-quinolin-4-yloxy)-phenyl]-urea], the IC50 was 12 nM.

Take `COc1cc2c(Oc3ccc(NC(=O)NCCC(C)(C)C)cc3F)ccnc2cc1OCCN1C(C)CCCC1C` (centres unmarked) [Compound 132, 1-(3,3-Dimethyl-butyl)-3-(4-{7-[2-(2,6-dimethyl-piperidin-1-yl)-ethoxy]-6-methoxy-quinolin-4-yloxy}-3-fluoro-phenyl)-urea]: the IC50 is 146 nM.

With `COc1cc2c(Oc3ccc(Nc4ccc(C(C)(C)C)cc4)cc3)ccnc2cc1OCC1CCCN(C)C1` (centres unmarked) [Compound 56, (4-Tert-butylphenyl)-{4-[6-methoxy-7-(1-methylpiperidin-3-ylmethoxy)quinolin-4-yloxy]phenyl}amine], the IC50 was found to be 405 nM. Regarding `COc1cc2c(Oc3ccc(NC(=O)NCCC(C)(C)C)c(F)c3)ccnc2cc1OC(=O)N1CCC(N2CCCCC2)CC1` [Compound 230, 4-{4-[3-(3,3-Dimethyl-butyl)-ureido]-3-fluoro-phenoxy}-6-methoxy-quinolin-7-yl [1,4′]bipiperidineyl-1′-carboxylate], the IC50 stood at 32.1 nM. In the case of `CCN(CC)CCCOc1cc2nccc(Oc3ccc(Nc4ccc(C(C)(C)C)cc4)cc3)c2cc1OC` [Compound 47, N1-[4-(Tert-butyl)phenyl]-4-({7-[3-(diethylamino)propoxy]-6-methoxy-4-quinolyl}oxy)aniline], the IC50 turned out to be 243 nM. Turning to `COc1cc2c(Oc3ccc(NC(=O)NCCC(C)(C)C)c(Cl)c3)ccnc2cc1OCCNCCO` [Compound 331, 1-(2-Chloro-4-{7-[2-(2-hydroxy-ethylamino)-ethoxy]-6-methoxy-quinolin-4-yloxy}-phenyl)-3-(3,3-dimethyl-butyl)-urea], the IC50 turned out to be 30.1 nM. Regarding `COc1cc2c(Oc3ccc(Nc4ccc(C(C)(C)C)cc4)cc3)ccnc2cc1OCCCCN1CCCCC1` [Compound 36, (4-Tert-butylphenyl)-{4-[6-methoxy-7-(4-piperidin-1-ylbutoxy)-quinolin-4-yloxy]phenyl}amine], the IC50 was found to be 247 nM. Turning to `COc1cc2c(Oc3ccc(NC(=O)NCCC(C)(C)C)c(Cl)c3)ccnc2cc1OCC(O)CN1CCOCC1` (centres unmarked) [Compound 195, 1-{2-Chloro-4-[7-(2-hydroxy-3-morpholin-4-yl-propoxy)-6-methoxy-quinolin-4-yloxy]-phenyl}-3-(3,3-dimethyl-butyl)-urea], the IC50 was < 10 nM. Consider `COc1cc2nccc(Oc3ccc(NC(=O)NC4CC(C)CC(C)(C)C4)c(Cl)c3)c2cc1OC` (centres unmarked) [Compound 107, 1-[2-Chloro-4-(6,7-dimethoxy-quinolin-4-yloxy)-phenyl]-3-(3,3,5-trimethyl-cyclohexyl)-urea], for which the IC50 was < 10 nM. To `COc1cc2c(Oc3ccc(NC(=O)NCCC(C)(C)C)c(Cl)c3)ccnc2cc1OCCCN1CC(C)OC(C)C1` (centres unmarked) [Compound 317, 1-(2-Chloro-4-{7-[3-(2,6-dimethyl-morpholin-4-yl)-propoxy]-6-methoxy-quinolin-4-yloxy}-phenyl)-3-(3,3-dimethyl-butyl)-urea] belongs 20.4 nM. In the case of `COc1cc2c(Oc3ccc(NC(=O)NCCC(C)(C)C)cc3)ccnc2cc1OCCNC(C)CO` (centres unmarked) [Compound 361, 1-(3,3-Dimethyl-butyl)-3-(4-{7-[2-(2-hydroxy-1-methyl-ethylamino)-ethoxy]-6-methoxy-quinolin-4-yloxy}-phenyl)-urea], the IC50 was determined as 29.8 nM. To `COc1cc2c(Oc3ccc(NC(=O)NCCC(C)(C)C)c(F)c3)ccnc2cc1OCCCN1CC(C)OC(C)C1` (centres unmarked) [Compound 325, 1-(3,3-Dimethyl-butyl)-3-(4-{7-[3-(2,6-dimethyl-morpholin-4-yl)-propoxy]-6-methoxy-quinolin-4-yloxy}-2-fluoro-phenyl)-urea] belongs 34.2 nM; to `COc1cc2c(Oc3ccc(Nc4ccc(C(C)(C)C)cc4)cc3)ccnc2cc1OCCCN1CCOCC1` [Compound 24, (4-Tert-butylphenyl)-{4-[6-methoxy-7-(3-morpholin-4-ylpropoxy)quinolin-4-yloxy]phenyl}amine], 183 nM; to `COc1cc2c(Oc3ccc(Nc4ccc(C(C)(C)C)cc4)cc3)ccnc2cc1OCCN1CCCN(C)CC1` [Compound 45, (4-Tert-butylphenyl)-(4-{6-methoxy-7-[2-(4-methyl-[1,4]diazepin-1-yl)ethoxy]quinolin-4-yloxy}phenyl)amine], 240 nM. Consider `COc1cc2c(Oc3ccc(NC(=O)NCCC(C)(C)C)c(Cl)c3)ccnc2cc1OCC(O)CN1CCOCC1` (centres unmarked) [Compound 206, 1-{2-Chloro-4-[7-(2-hydroxy-3-morpholin-4-yl-propoxy)-6-methoxy-quinolin-4-yloxy]-phenyl}-3-(3,3-dimethyl-butyl)-urea], for which the IC50 is 18.5 nM. As for `COCC(C)NCCOc1cc2nccc(Oc3ccc(Nc4ccc(C(C)(C)C)cc4)cc3)c2cc1OC` (centres unmarked) [Compound 363, N1-[4-(Tert-butyl)phenyl]-4-[(6-methoxy-7-{2-[(2-methoxy-1-methylethyl)amino]ethoxy}-4-quinolyl)oxy]aniline], the IC50 was determined as 364 nM. To `COc1cc2c(Oc3ccc(Nc4ccc(C(C)(C)C)cc4)cc3F)ccnc2cc1OCCN1CCC(O)CC1` [Compound 284, 1-(2-{4-[4-(4-Tert-butyl-phenylamino)-2-fluoro-phenoxy]-6-methoxy-quinolin-7-yloxy}-ethyl)-piperidin-4-ol] belongs 247 nM.

`COc1cc2c(Oc3ccc(NC(=O)NCCC(C)(C)C)c(Cl)c3)ccnc2cc1OCCCCl` [Compound 161, 1-{2-Chloro-4-[7-(3-chloro-propoxy)-6-methoxy-quinolin-4-yloxy]-phenyl}-3-(3,3-dimethyl-butyl)-urea]: the IC50 came out at 189 nM. On to `COc1cc2nccc(Oc3ccc(NC(=O)NCCC(C)(C)C)c(C(F)(F)F)c3)c2cc1OC` [Compound 150, 1-[4-(6,7-Dimethoxy-quinolin-4-yloxy)-2-trifluoromethyl-phenyl]-3-(3,3-dimethyl-butyl)-urea], for which the IC50 amounted to 63.8 nM. Consider `COc1cc2c(Oc3ccc(NC(=O)NCCC(C)(C)C)c(Cl)c3)ccnc2cc1OCCN1CCC(C)CC1` [Compound 117, 1-(2-Chloro-4-{6-methoxy-7-[2-(4-methyl-piperidin-1-yl)-ethoxy]-quinolin-4-yloxy}-phenyl)-3-(3,3-dimethyl-butyl)-urea], for which the IC50 turned out to be 178 nM.

Values taken from patent US7495104B2, “Quinoline or quinazoline derivatives inhibiting auto-phosphorylation of fibroblast growth factor receptors” (Kirin Beer Kabushiki Kaisha, priority 2001, dated 2009).
